Reference: patent EP4782431A1 (Suzhou Merna Therapeutics Co. Ltd, priority 2023, dated 2025)

What was measured:
[1] = test system: rat models with a hand-foot skin reaction; assay: rat models with a hand-foot skin reaction; type: in vivo, SD rats
Protocol: After adaptive feeding for one week, SD rats (with a body weight of approximately 200 g) were randomly divided into groups with balanced body weight, with 12 rats in each group. Modeling drugs (including sorafenib, erlotinib, afatinib, and osimertinib) were respectively dissolved in a solution containing 5% of DMSO, 45% of PEG400, and 50% of H2O, and the modeling drugs were diluted to required concentrations and then administered once daily by gavage at doses shown in Table 3. After administration by gavage for 1 hour, 0.05 g of ointments containing different mass proportions of test compounds were evenly applied to left paws of the rats, a blank matrix ointment was applied to right paws of the rats to serve as a self-control, and no ointment was applied to the rats in a blank control group. After drug application, four limbs were continuously immobilized for 2 hours, then wiped with clean water to remove the residual drugs, removed from immobilization, and restored to free movement. The modeling drugs, the blank matrix ointment, and the ointments containing the test compounds were all administered once daily. After continuous administration for 30 days, the rats were euthanized, and paw plantar skin tissues were collected, fixed in 10% neutral formalin, […]. The ointments for the test compounds were prepared by mixing the compounds, white beeswax, white petrolatum, and light liquid paraffin in specific ratios (weight ratios of 3 ointments were respectively 1:18:58:23, 3:18:57:22, and 10:20:40:30). The blank matrix ointment was prepared by mixing white beeswax, white petrolatum, and light liquid paraffin in a specific ratio (weight ratio of 18:60:22).
Tissue staining: After dewaxing and rehydration, the paw plantar skin tissue sections of the above rats were stained in a hematoxylin solution for several minutes, cleaned, and placed in 1% acid alcohol for soaking until the sections faded to light blue-red. After cleaning with running water for 5 minutes, the sections were stained with eosin for 2-3 minutes, cleaned to remove excess dyes, dehydrated, then permeabilized by adding xylene for several minutes, and sealed and fixed with a neutral resin. The stratum corneum was observed under an optical microscope, and the thickness of the epidermal stratum corneum was measured using Dmetrix software.
Immunohistochemical staining: After dewaxing and hydration, the paw plantar skin tissue sections of the above rats were incubated with 3% H2O2 at room temperature for 30 minutes and blocked with 10% goat serum for 30 minutes after antigen retrieval. A KRT1 antibody (Abcam, ab93652) and a Loricrin antibody (Abcam, ab183646) were added dropwise, the sections were incubated overnight at 4°C, and an HRP secondary antibody (ZSGB-BIO, PV-6001) and a DAB kit (ZSG-BIO, ZLI9017) were added for color development. The sections were re-stained with hematoxylin, cleaned, and sealed and fixed with a neutral resin, and the expression amounts of KRT1 and Loricrin were observed under an optical microscope.
An incidence rate calculation method involves a proportion of animals in each group meeting the above criteria for determining successful modeling, that is, incidence rate = (number of successfully modeled rats/total number of rats in the group)*100%. […]

HaCaT cells = assay: m6A methylation level of human keratinocytes (EpiQuik m6A RNA methylation quantification kit); type: cell-based; details: for m6A fold change: 24 hours
Protocol: HaCaT cells were cultured in DMEM culture medium containing 10% fetal bovine serum, 100 U/mL penicillin, and 100 µg/mL streptomycin. Culture dishes were placed in an incubator containing 5% CO2 for culture at 37°C for 24 hours. An equal volume of DMSO was added in control group 1, 50 nM sorafenib, capecitabine, docetaxel, and osimertinib were respectively added in control groups A, B, C, and D, and 400 nM test compounds or nicotinamide were respectively added in sample groups A1, A2, B1, B2, C1, C2, D1, and D2 after the addition of 50 nM corresponding compounds. The cells were continuously cultured for 24 hours, washed with PBS, and then collected by high-speed centrifugation. Total RNA was extracted using Trizol reagent (Sigma Aldrich), and RNA m6A methylation of a sample was quantitatively detected using an EpiQuik m6A RNA methylation quantification kit. The concentrations of positive control samples for a standard curve were 0.01 ng/µl, 0.02 ng/µl, 0.05 ng/µl, 0.1 ng/µl, 0.2 ng/µl, and 0.5 ng/µl. The absorbance at 450 nm was read using a microplate reader (Tecan GENios). A quantitative calculation formula for m6A is as follows: m6A(ng) = (absorbanceofsamplewell−absorbanceofbackroundwell)/slope of standard curve [formula] m6A(%) = m6A(ng)/RNA amount of sample(ng)*100%. [formula]

[2] = modeling drug alone by gavage once daily 30 days (Sorafenib 100, Erlotinib 70, Afatinib 50, Osimertinib 60 mg/kg), no test compound
[3] = 50 nM drug alone, relative to control group 1 (DMSO)
[4] = 400 nM after 50 nM capecitabine, relative to control group 1
[5] = 400 nM after 50 nM docetaxel, relative to control group 1
[6] = 400 nM after 50 nM osimertinib, relative to control group 1
[7] = 400 nM after 50 nM sorafenib, relative to control group 1

## CNC(=O)c1cc(Oc2ccc(NC(=O)Nc3ccc(Cl)c(C(F)(F)F)c3)cc2)ccn1 [Sorafenib, sorafenib]
[1]; SD rats, once daily by gavage: sorafenib 100, erlotinib 70, afatinib 50, osimertinib 60 mg/kg
  successful modeling rates for the hand-foot skin reaction: 75%
[1]; immunohistochemical staining, successfully modeled rats, modeling drug alone
  KRT1 and Loricrin in tissues: significantly increased
[1]; [2]
  Incidence rate Left paw: 9/12 (75%)
  Incidence rate Right paw: 9/12 (75%)
[1]; successfully modeled rats, modeling drug alone, vs normal rats
  stratum corneum thickness of the paw plantar skin: significantly higher than that of normal rats
HaCaT cells; [3]
  m6A fold change: 4.5 fold

## C=CC(=O)Nc1cc(Nc2nccc(-c3cn(C)c4ccccc34)n2)c(OC)cc1N(C)CCN(C)C [Osimertinib, osimertinib]
[1]; rat, in vivo
  KRT1 and Loricrin in tissues: significantly increased
  stratum corneum thickness of the paw plantar skin: significantly higher than that of normal rats
HaCaT cells; [3]
  m6A fold change: 4.8 fold

## NC(=O)[C@H]1CCCc2c1[nH]c1ccc(Cl)cc21 [Compound of formula (I), (S)-6-chloro-2,3,4,9-tetrahydro-1H-carbazole-carboxamide]
[1]; Afatinib 50 mg/kg model, 1% ointment on left paw, once daily 30 days
  Incidence rate Left paw: 3/12 (25%)
[1]; Afatinib 50 mg/kg model, 3% ointment on left paw, once daily 30 days
  Incidence rate Left paw: 2/12 (17%)
[1]; Afatinib 50 mg/kg model, 10% ointment on left paw, once daily 30 days
  Incidence rate Left paw: 0/12 (0%)
[1]; Afatinib 50 mg/kg model, right paw with blank matrix ointment, 1% ointment on left paw, 30 days
  Incidence rate Right paw: 9/12 (75%)
[1]; Afatinib 50 mg/kg model, right paw with blank matrix ointment, 3% ointment on left paw, 30 days
  Incidence rate Right paw: 4/12 (33%)
[1]; Afatinib 50 mg/kg model, right paw with blank matrix ointment, 10% ointment on left paw, 30 days
  Incidence rate Right paw: 3/12 (25%)
[1]; Erlotinib 70 mg/kg model, 1% ointment on left paw, once daily 30 days
  Incidence rate Left paw: 3/12 (25%)
[1]; Erlotinib 70 mg/kg model, 3% ointment on left paw, once daily 30 days
  Incidence rate Left paw: 2/12 (17%)
[1]; Erlotinib 70 mg/kg model, 10% ointment on left paw, once daily 30 days
  Incidence rate Left paw: 1/12 (8%)
[1]; Erlotinib 70 mg/kg model, right paw with blank matrix ointment, 1% ointment on left paw, 30 days
  Incidence rate Right paw: 10/12 (83%)
[1]; Erlotinib 70 mg/kg model, right paw with blank matrix ointment, 3% ointment on left paw, 30 days
  Incidence rate Right paw: 5/12 (42%)
[1]; Erlotinib 70 mg/kg model, right paw with blank matrix ointment, 10% ointment on left paw, 30 days
  Incidence rate Right paw: 4/12 (33%)
[1]; Osimertinib 60 mg/kg model, 1% ointment on left paw, once daily 30 days
  Incidence rate Left paw: 2/12 (17%)
[1]; Osimertinib 60 mg/kg model, 3% ointment on left paw, once daily 30 days
  Incidence rate Left paw: 2/12 (17%)
[1]; Osimertinib 60 mg/kg model, 10% ointment on left paw, once daily 30 days
  Incidence rate Left paw: 0/12 (0%)
[1]; Osimertinib 60 mg/kg model, right paw with blank matrix ointment, 1% ointment on left paw, 30 days
  Incidence rate Right paw: 8/12 (67%)
[1]; Osimertinib 60 mg/kg model, right paw with blank matrix ointment, 3% ointment on left paw, 30 days
  Incidence rate Right paw: 4/12 (33%)
[1]; Osimertinib 60 mg/kg model, right paw with blank matrix ointment, 10% ointment on left paw, 30 days
  Incidence rate Right paw: 3/12 (25%)
[1]; Sorafenib 100 mg/kg model, 1% ointment on left paw, once daily 30 days
  Incidence rate Left paw: 2/12 (17%)
[1]; Sorafenib 100 mg/kg model, 3% ointment on left paw, once daily 30 days
  Incidence rate Left paw: 2/12 (17%)
[1]; Sorafenib 100 mg/kg model, 10% ointment on left paw, once daily 30 days
  Incidence rate Left paw: 0/12 (0%)
[1]; Sorafenib 100 mg/kg model, right paw with blank matrix ointment, 1% ointment on left paw, 30 days
  Incidence rate Right paw: 9/12 (75%)
[1]; Sorafenib 100 mg/kg model, right paw with blank matrix ointment, 3% ointment on left paw, 30 days
  Incidence rate Right paw: 4/12 (33%)
[1]; Sorafenib 100 mg/kg model, right paw with blank matrix ointment, 10% ointment on left paw, 30 days
  Incidence rate Right paw: 4/12 (33%)
[1]; ointment on paw of modeled rats
  stratum corneum thickness of the paw plantar skin of the modeled rats: effectively decrease
[1]; ointment, mass content of 1%
  incidence rate of hand-foot skin reaction at a drug application site: significantly decrease
[1]; ointment, mass content of 3% and 10%
  incidence rate of hand-foot skin reaction in all paws of the rats: significantly decrease
[1]; pathological scoring (FIG. 10)
  formation of blisters in the epidermis and subepidermis caused by the modeling drugs: effectively alleviate
  inflammatory cell infiltration in the dermis: inhibit
  skin congestion phenomenon: significantly alleviate
[1]; tissue staining (FIG. 9)
  formation of blisters in the epidermis and subepidermis caused by the modeling drugs: effectively alleviate
  inflammatory cell infiltration in the dermis: inhibit
  skin congestion phenomenon: significantly alleviate
HaCaT cells; 400 nM
  abnormal increase in the RNA m6A level of human keratinocytes caused by chemotherapeutic drugs and multikinase inhibitors: effectively inhibit
HaCaT cells; [4]
  m6A fold change: 1.1 fold
HaCaT cells; [5]
  m6A fold change: 1.0 fold
HaCaT cells; [6]
  m6A fold change: 1.2 fold
HaCaT cells; [7]
  m6A fold change: 1.4 fold

## NC(=O)c1cccnc1 [Nicotinamide, nicotinamide]
HaCaT cells; [4]
  m6A fold change: 4.5 fold
HaCaT cells; [5]
  m6A fold change: 5.4 fold
HaCaT cells; [6]
  m6A fold change: 5.0 fold
HaCaT cells; [7]
  m6A fold change: 4.7 fold
